Laboratory results: patent US5990147A, “H3 receptor ligands of the phenyl-alkyl-imidazoles type” (Schering Corporation, priority 1998, dated 1999)
pKi: −log10 of the molar value.

Molecular target: T1, H3 receptors (Cavia porcellus, UniProt Q9JI35)
T1 construct: The source of the H3 receptors in this experiment was guinea pig brain; from tissue; host or cells: guinea pig brain membranes
Test: H3-Receptor Binding Assay (guinea pig brain membranes, [3H]R-a-methylhistamine or [3H]Na-methylhistamine)
Settings: not given
Method: The source of the H3 receptors in this experiment was guinea pig brain. The animals weighed 400-600 g. The brain tissue was homogenized using a Polytron in a solution of 50 mM Tris, pH 7.5. The final concentration of tissue in the homogenization buffer was 10% w/v. The homogenates were centrifuged at 1,000×g for 10 min. in order to remove clumps of tissue and debris. The resulting supernatants were then centrifuged at 50,000×g for 20 min. in order to sediment the membranes, which were next washed three times in homogenization buffer (50,000×g for 20 min. each). The membranes were frozen and stored at -70° C. until needed.
All compounds to be tested were dissolved in DMSO and then diluted into the binding buffer (50 mM Tris, pH 7.5) such that the final concentration was 2 μg/ml with 0.1% DMSO. Membranes were then added (400 μg of protein) to the reaction tubes. The reaction was started by the addition of 3 nM [^3 H]R-a-methylhistamine (8.8 Ci/mmol) or 3 nM [^3 H]N^a -methylhistamine (80 Ci/mmol) and continued under incubation at 30° C. for 30 min. Bound ligand was separated from unbound ligand by filtration, and the amount of radioactive ligand bound to the membranes was quantitated by liquid scintillation spectrometry. All incubations were performed in duplicate and the standard error was always less than 10%. […] The results are given in the table below for the HCl salt of the indicated compound.

T1 sequence (Q9JI35 whole entry): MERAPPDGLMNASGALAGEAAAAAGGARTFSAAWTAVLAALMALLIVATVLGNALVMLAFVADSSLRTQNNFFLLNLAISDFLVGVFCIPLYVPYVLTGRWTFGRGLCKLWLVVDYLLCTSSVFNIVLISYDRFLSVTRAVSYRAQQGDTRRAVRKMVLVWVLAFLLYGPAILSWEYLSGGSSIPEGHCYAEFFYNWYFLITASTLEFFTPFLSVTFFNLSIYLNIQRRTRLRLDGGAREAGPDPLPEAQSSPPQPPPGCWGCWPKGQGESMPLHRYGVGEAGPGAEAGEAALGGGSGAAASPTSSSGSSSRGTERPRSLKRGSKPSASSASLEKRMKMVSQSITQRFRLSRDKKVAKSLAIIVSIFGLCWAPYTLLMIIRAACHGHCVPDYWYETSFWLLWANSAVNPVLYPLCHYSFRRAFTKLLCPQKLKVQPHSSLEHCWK

Compared with `Cc1cc(C)cc(NC(=O)OCc2ccc(Cc3c[nH]cn3)cc2)c1` [Compound 14], `O=C(Nc1cccc(F)c1)OCc1ccc(Cc2c[nH]cn2)cc1` [Compound 19] is 0.53 log units higher in pKi: 7.77 for the first, 8.30 for the second.

Compared with `O=C(NCc1ccc(Cc2c[nH]cn2)cc1)Nc1cc(Cl)cc(Cl)c1` [Compound 8], `O=C(CCc1ccc(Cc2c[nH]cn2)cc1)Nc1cccc(Cl)c1` [Compound 22] is 1.08 log units higher in pKi: 7.92 for the first, 9.00 for the second. The second binds more tightly here.

First: N#Cc1cccc(NC(=O)OCc2ccc(Cc3c[nH]cn3)cc2)c1 [Compound 15]
Second: COc1cccc(NC(=O)OCc2ccc(Cc3c[nH]cn3)cc2)c1 [Compound 17]
The pKi of the first is 0.26 log units higher: 8.15 for the first, 7.89 for the second.

First: O=C(CCc1ccc(Cc2c[nH]cn2)cc1)NCCc1ccc(Cl)cc1 [Compound 24]
Second: O=C(CCc1ccc(Cc2c[nH]cn2)cc1)Nc1ccccc1 [Compound 21]
The pKi of the first is 0.40 log units lower: 8.30 for the first, 8.70 for the second.

With `O=C(Nc1cccc(C(F)(F)F)c1)OCc1ccc(Cc2c[nH]cn2)cc1` [Compound 12] the pKi was 7.68.

Same assay, conditions: HCl salt of the indicated compound; guinea pig brain membranes; 3 nM [3H]R-a-methylhistamine or 3 nM [3H]Na-methylhistamine, pH 7.5, 30° C., 30 min; read-out: Ki

First: O=C(NCc1ccc(Cc2c[nH]cn2)cc1)Nc1ccccc1Cl [Compound 4]
Second: O=C(NCc1ccc(Cc2c[nH]cn2)cc1)Nc1cccc(Cl)c1 [Compound 9]
The pKi of the first is 0.73 log units lower: 7.49 for the first, 8.22 for the second.

`O=C(NCc1ccc(Cc2c[nH]cn2)cc1)Nc1cc(Cl)cc(Cl)c1` [Compound 8] and `O=C(Nc1cc(Cl)cc(Cl)c1)OCc1ccc(Cc2c[nH]cn2)cc1` [Compound 20] are within 0.2 log units of each other in pKi: 8.40 for the first, 8.30 for the second.

`O=C(NCc1ccc(Cc2c[nH]cn2)cc1)Nc1cc(C(F)(F)F)cc(C(F)(F)F)c1` [Compound 2] and `O=C(Nc1cc(C(F)(F)F)cc(C(F)(F)F)c1)OCc1ccc(Cc2c[nH]cn2)cc1` [Compound 18] are within 0.2 log units of each other in pKi: 7.66 for the first, 7.64 for the second.

Compared with `O=C(NCc1ccc(Cc2c[nH]cn2)cc1)Nc1ccc(Cl)c(Cl)c1` [Compound 10], `O=C(Nc1ccc(Cl)c(Cl)c1)OCc1ccc(Cc2c[nH]cn2)cc1` [Compound 13] is 0.41 log units lower in pKi: 8.15 for the first, 7.74 for the second. The first binds more tightly here.

`O=C(NCc1ccc(Cc2c[nH]cn2)cc1)Nc1cccc(C(F)(F)F)c1` [Compound 6] and `COc1cccc(NC(=O)NCc2ccc(Cc3c[nH]cn3)cc2)c1` [Compound 1] are within 0.2 log units of each other in pKi: 7.80 for the first, 7.74 for the second.

First: Cc1cc(C)cc(NC(=O)NCc2ccc(Cc3c[nH]cn3)cc2)c1 [Compound 3]
Second: N#Cc1cccc(NC(=O)NCc2ccc(Cc3c[nH]cn3)cc2)c1 [Compound 7]
The pKi of the first is 0.25 log units lower: 8.05 for the first, 8.30 for the second. The second binds more tightly here.

System: short-term memory and reversal learning
Test: not given
Settings: rat; Clapham et al., Brit. J. Pharm. Suppl. 1993; cited from earlier work

For `S=C(NC1CCCCC1)N1CCC(c2cnc[nH]2)CC1` [thioperamide], the “short-term memory and reversal learning” value is given as “can improve short-term memory and reversal learning in the rat”.

System: electrically induced convulsions
Test: not given
Settings: mice; Yokoyama et al., Eur. J. Pharmacol. 1993; cited from earlier work

In the case of `S=C(NC1CCCCC1)N1CCC(c2cnc[nH]2)CC1` [thioperamide], the “duration of each phase of convulsion” value is listed as “decreased the duration of each phase of convulsion”.

For `S=C(NC1CCCCC1)N1CCC(c2cnc[nH]2)CC1` [thioperamide], the electroconvulsive threshold is given as “raised the electroconvulsive threshold”.
